These are literature values, as cited in US9572894B2, “Biodegradable particulate formulations” (The University of Iowa Research Foundation, priority 2010, dated 2017).

The data set relates to gliomas. Particulars: ten daily i.t. injections.

Structures are written as SMILES.

Turning to `COc1cccc2c1C(=O)c1c(O)c3c(c(O)c1C2=O)C[C@@](O)(C(=O)CO)C[C@@H]3O[C@H]1C[C@H](N)[C@H](O)[C@H](C)O1` [doxorubicin], the reported toxicity entry was “limited to headache” and the “subjects with local regression” value was “six of the ten”.
